Entries after “also recorded” stand apart in the source; their conditions may differ.
Test system: participants with idiopathic pulmonary fibrosis (IPF)
Assay: Phase 2a clinical trial ([…]-IPF): Forced Vital Capacity (FVC) spirometry
Format: in vivo, human
Experimental: Study Design and Objectives. […] At Day 1, baseline values were collected.
Data shown from left to right is participants treatment with 40 mg Compound 5, 80 mg Compound 5, 160 mg Compound 5, all participants treated with Compound 5, and participants treated with Placebo. Change from baseline was analyzed using a mixed model for repeated measures with terms for treatment group, SOC (Y/N), visit, baseline value, and treatment-by-visit interaction. An unstructured covariance (UN) structure was used.
[…]-IPF study design and objectives.
The histograms from left to right are 40 mg (n=22) with a LS Mean (SE) change from Baseline in FVC (mL) at Week 12 of −48.6, 80 mg (n=23) with a LS Mean (SE) change from Baseline in FVC (mL) at Week 12 of 22.8, 160 mg (n=22) with a LS Mean (SE) change from Baseline in FVC (mL) at Week 12 of −28.7, 320 mg (n=21) with a LS Mean (SE) change from Baseline in FVC (mL) at Week 12 of 26.8, and placebo (n=31) with a LS Mean (SE) change from Baseline in FVC (mL) at Week 12 of −64.2. Change from baseline in FVC analyzed using a mixed model for repeated measures (MMRM) with terms for treatment group, use of SOC, week and baseline value. FVC=Forced Vital Capacity. mITT=Modified Intent to Treat. * p<0.05. **p<0.01.
At Day 1, baseline values were collected.

COCCN(CCCCc1ccc2c(n1)NCCC2)CC[C@H](Nc1ncnc2ccccc12)C(=O)O [Compound 5, (S)-4-((2-methoxyethyl) (4-(5,6,7,8-tetrahydro-1,8-naphthyridin-2-yl)butyl)amino)-2-(quinazolin-4-ylamino) butanoic acid] was tested, and the “LS Mean (SE) change from Baseline in FVC at Week 12, mITT, FIG. 27” value (40 mg (n=22), placebo (n=31) −64.2) was -48.6 mL and the “Treatment effect on FVC with and without use of standard-of-care agents” value (12 weeks) was “evident; also recorded: observed”.

Source: patent US20240122930A1, “INTEGRIN INHIBITORS AND USES THEREOF IN COMBINATION WITH OTHER AGENTS” (Pliant Therapeutics, Inc., priority 2022, published 2024)
